How the values were obtained:
IDO1 [1] = target: T1, IDO1 (Homo sapiens, UniProt P14902); assay: IDO1 Cellular Assay in HeLa Cells Stimulated with IFNγ; assay type: cell-based; conditions: IFNγ 100 ng/mL, 300 uM L-tryptophan, about 48 hours, fluorescence readout, read-out: IDO1 HELA Cell Assay, IC50
IDO1 [2] = target: T1, IDO1; assay: IDO1 Human Whole Blood Assay; assay type: cell-based; set-up: Human whole blood was drawn in sodium heparin coated tubes from healthy internal donors; from tissue; host or cells: human whole blood from healthy donors, stimulated with LPS and IFNγ; conditions: LPS and IFNγ 100 ng/mL, overnight (18 h), kynurenine by LC/MS/MS
Method: IDO1 Human Whole Blood Assay
Compounds to be tested were serially diluted in ten 3-fold steps in DMSO starting from 10 mM. 3 μL of compound dilutions or DMSO alone were then dispensed from the dilution plate into a polypropylene 96-well assay plate containing 97 μL of RPMI medium using an Echo 555 acoustic liquid handler (Labcyte). LPS and IFNγ was prepared in RPMI medium to a 10× of final conc. (1000 ng/mL), final concentration is 100 ng/mL.
Human whole blood was drawn in sodium heparin coated tubes from healthy internal donors. 240 μL of blood was transferred to each of the wells of a v-bottom 96 well plate. 30 μL of compound was transferred from intermediate dilution plate, and incubated for 15 min. 30 μL from stimulants was then transferred to blood and mixed thoroughly. Plate was covered with breathable membrane and incubated at 37° C. for overnight (18 h).
On day 2, isotope labeled standard solutions of kynurenine and tryptophan was made in water at 10× concentration and 30 μL was added to the blood at 3 μM final concentration. The assay plates were centrifuged at 300×G for 10 min with no brake to separate plasma from red blood cells. 60 μL of plasma samples was removed without disturbing red blood cells. Plasma was diluted with RPMI in 1:1 ratio and proteins were precipitated out with two volumes of Acetonitrile. The plates were centrifuged at 4000×G for 60 min. 20 μL of supernatant was carefully transferred to a 384 well plate containing 40 μL of 0.1% formic acid in water and analyzed by LC/MS/MS.
LC/MS/MS analyses were performed using Thermo Fisher's LX4-TSQ Quantum Ultra system. This system consists of four Agilent binary high-performance liquid chromatography (HPLC) pumps and a TSQ Quantum Ultra triple quadrupole MS/MS instrument. For each sample, 5 μL were injected onto an Atlantis T3 column (2.1 mm×150 mm, 3 μm particle size) from Waters. The mobile phase gradient pumped at 0.8 mL/min was used to elute the analytes from the column at 25 EC. The elution started at 0% B increasing linearly to 25% B at 6.5 min, holding at 25% for 1 min, re-equilibrating to 10 min. Mobile phase A consisted of 0.1% formic acid in water. Mobile phase B consisted of 0.1% of formic acid in acetonitrile. Data were acquired in positive mode using a HESI interface. The operational parameters for the TSQ Quantum Ultra instrument were a spray voltage of 4000 V, capillary temperature of 380° C., vaporizer temperature 400° C., shealth gas 60 arbitrary units, Aux gas 20 arbitrary units, tube lens 85 and collision gas 1.2 mTorr. SRM chromatograms of kynurenine (Qi: 209.2>Q3:94.0) and internal standard (Qi: 215.3>Q3:98.2) were collected for 90 sec. The peak area was integrated by Xcalibur Quan software. The ratios between the kynurenine generated in the reaction and 2D6-Kynurenine spiked-in internal standard were used to generate percentage inhibition and IC50 values. Compounds were titrated and IC50's were calculated by 4 parameter sigmoidal curve fitting formula.
The biological activity data of selective compounds using the IDO1 human whole blood assay described above are summarized in the table below.

T1 sequence (P14902 whole entry): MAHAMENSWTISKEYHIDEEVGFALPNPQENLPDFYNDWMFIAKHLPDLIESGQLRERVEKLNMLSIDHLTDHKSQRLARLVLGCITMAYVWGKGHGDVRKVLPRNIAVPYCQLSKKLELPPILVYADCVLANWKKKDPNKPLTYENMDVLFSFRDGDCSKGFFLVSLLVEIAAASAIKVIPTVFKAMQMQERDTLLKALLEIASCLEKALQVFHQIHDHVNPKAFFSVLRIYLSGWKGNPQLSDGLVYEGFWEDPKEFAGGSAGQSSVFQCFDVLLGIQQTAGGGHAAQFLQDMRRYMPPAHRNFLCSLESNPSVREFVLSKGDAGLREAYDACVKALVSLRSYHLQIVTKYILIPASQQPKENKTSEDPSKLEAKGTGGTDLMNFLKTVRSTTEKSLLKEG

With `Cc1cccc(C2CCN(C(=O)Cn3nc(C(=O)N4CC[C@H](O)[C@@H](F)C4)c4c3CCC4)CC2)c1C` [Example 37, 1-(4-(2,3-dimethylphenyl)piperidin-1-yl)-2-(3-((3S,4S)-3-fluoro-4-hydroxypiperidine-1-carbonyl)-5,6-dihydrocyclopenta[c]pyrazol-1(4H)-yl)ethanone] the IC50 (IDO1 [1]) was 1.8 nM and the IC50 (IDO1 [2]) was 84.9 nM.
In the case of `Cc1cccc(C2CCN(C(=O)Cn3nc(C(=O)N4CCN(C(=O)CO)CC4)c4c3CCCC4)CC2)c1C` [Example 42, 1-(4-(2,3-dimethylphenyl)piperidin-1-yl)-2-(3-(4-(2-hydroxyacetyl)piperazine-1-carbonyl)-4,5,6,7-tetrahydro-1H-indazol-1-yl)ethanone], the IC50 (IDO1 [1]) is reported as 3.7 nM and the IC50 (IDO1 [2]) is reported as 304 nM.
With `Cc1cccc(C2CCN(C(=O)Cn3nc(C(=O)N4CCO[C@H](CO)C4)c4c3CCC4)CC2)c1C` [Example 43, (S)-1-(4-(2,3-dimethylphenyl)piperidin-1-yl)-2-(3-(2-(hydroxymethyl)morpholine-4-carbonyl)-5,6-dihydrocyclopenta[c]pyrazol-1(4H)-yl) ethanone] the IC50 (IDO1 [1]) was 5.5 nM and the IC50 (IDO1 [2]) was 192 nM.
`Cc1cccc(C2CCN(C(=O)Cn3nc(C(=O)N4CC[C@H](O)[C@H](F)C4)c4c3CCC4)CC2)c1C` [Example 44, 1-(4-(2,3-dimethylphenyl)piperidin-1-yl)-2-(3-((3R,4S)-3-fluoro-4-hydroxypiperidine-1-carbonyl)-5,6-dihydrocyclopenta[c]pyrazol-1(4H)-yl)ethanone] gave an IC50 (IDO1 [1]) of 7.3 nM and an IC50 (IDO1 [2]) of 733 nM.
`Cc1cccc(C2CCN(C(=O)Cn3nc(C(=O)N4CC[C@@H](O)[C@@H](F)C4)c4c3CCC4)CC2)c1C` [Example 60, 1-(4-(2,3-dimethylphenyl)piperidin-1-yl)-2-(3-((3S,4R)-3-fluoro-4-hydroxypiperidine-1-carbonyl)-5,6-dihydrocyclopenta[c]pyrazol-1(4H)-yl)ethanone] was tested, and the IC50 (IDO1 [1]) was 3.5 nM and the IC50 (IDO1 [2]) was 488 nM.
Compound `Cc1ccccc1C1CCN(C(=O)Cn2nc(C(=O)N3C[C@@H](C)O[C@@H](C)C3)c3c2CCC3)CC1` [Example 62, 2-(3-((2S,6R)-2,6-dimethylmorpholine-4-carbonyl)-5,6-dihydrocyclopenta[c]pyrazol-1(4H)-yl)-1-(4-(o-tolyl)piperidin-1-yl)ethan-1-one] has an IC50 (IDO1 [1]) of 9.8 nM and an IC50 (IDO1 [2]) of 475 nM.
`Cc1cccc(C2CCN(C(=O)Cn3nc(C(=O)N4C[C@@H](C)O[C@@H](C)C4)c4c3CCC4)CC2)c1C` [Example 64, 2-(3-((2S,6R)-2,6-dimethylmorpholine-4-carbonyl)-5,6-dihydrocyclopenta [c]pyrazol-1(4H)-yl)-1-(4-(2,3-dimethylphenyl)piperidin-1-yl) ethanone] showed an IC50 (IDO1 [1]) of 1.1 nM and an IC50 (IDO1 [2]) of 296 nM.
`Cc1cccc(C2CCN(C(=O)Cn3nc(C(=O)N4C[C@@H](C)O[C@@H](C)C4)c4c3CCC4)CC2)c1` [Example 65, 2-(3-((2S,6R)-2,6-dimethylmorpholine-4-carbonyl)-5,6-dihydrocyclopenta [c]pyrazol-1(4H)-yl)-1-(4-(m-tolyl)piperidin-1-yl)ethanone] was tested, and the IC50 (IDO1 [1]) was 15.8 nM and the IC50 (IDO1 [2]) was 652 nM.
`Cc1cc(C2CCN(C(=O)Cn3nc(C(=O)N4C[C@@H](C)O[C@@H](C)C4)c4c3CCC4)CC2)ccc1Cl` [Example 81, 1-[4-(4-chloro-3-methylphenyl)piperidin-1-yl]-2-{3-[(2R,6S)-2,6-dimethylmorpholine-4-carbonyl]-5,6-dihydrocyclopenta[c]pyrazol-1(4H)-yl}ethan-1-one] gave an IC50 (IDO1 [1]) of 2.9 nM and an IC50 (IDO1 [2]) of 1320 nM.
For `Cc1c(Cl)cccc1C1CCN(C(=O)Cn2nc(C(=O)N3C[C@@H](C)O[C@@H](C)C3)c3c2CCC3)CC1` [Example 82, 1-[4-(3-chloro-2-methylphenyl)piperidin-1-yl]-2-{3-[(2R,6S)-2,6-dimethylmorpholine-4-carbonyl]-5,6-dihydrocyclopenta[c]pyrazol-1(4H)-yl}ethan-1-one], the IC50 (IDO1 [1]) was 3.5 nM and the IC50 (IDO1 [2]) was 435 nM.
`Cc1c(C2CCN(C(=O)Cn3nc(C(=O)N4C[C@@H](C)O[C@@H](C)C4)c4c3CCC4)CC2)cccc1C(F)(F)F` [Example 83, 2-{3-[(2R,6S)-2,6-dimethylmorpholine-4-carbonyl]-5,6-dihydrocyclopenta[c]pyrazol-1(4H)-yl}-1-{4-[2-methyl-3-(trifluoromethyl)phenyl]piperidin-1-yl}ethan-1-one] showed an IC50 (IDO1 [1]) of 4.2 nM and an IC50 (IDO1 [2]) of 1850 nM.
Compound `Cc1c(F)ccc(C2CCN(C(=O)Cn3nc(C(=O)N4C[C@@H](C)O[C@@H](C)C4)c4c3CCC4)CC2)c1C` [Example 172, 2-{3-[(2R,6S)-2,6-dimethylmorpholine-4-carbonyl]-5,6-dihydrocyclopenta[c]pyrazol-1(4H)-yl}-1-[4-(4-fluoro-2,3-dimethylphenyl)piperidin-1-yl]ethan-1-one] has an IC50 (IDO1 [1]) of 1.7 nM and an IC50 (IDO1 [2]) of 434 nM.
With `Cc1c(F)cccc1C1CCN(C(=O)Cn2nc(C(=O)N3C[C@@H](C)O[C@@H](C)C3)c3c2CCC3)CC1` [Example 173, 2-{3-[(2R,6S)-2,6-dimethylmorpholine-4-carbonyl]-5,6-dihydrocyclopenta[c]pyrazol-1(4H)-yl}-1-[4-(3-fluoro-2-methylphenyl)piperidin-1-yl]ethan-1-one] the IC50 (IDO1 [1]) was 6.4 nM and the IC50 (IDO1 [2]) was 269 nM.
